Measurements from patent US20110195845A1, “Constructs for Expressing Herbicide Tolerance Genes, Related Plants, and Related Trait Combinations” (Dow AgroSciences LLC, priority 2008, published 2011).

Tests used:
Wildtype Arabidopsis = experiment: Arabidopsis response to glufosinate applied postemergence; assay type: in vivo, Arabidopsis thaliana; conditions: for % Injury Ave / individuals with % Injury 20-40% / individuals with % Injury <20% / individuals with % Injury >40%: 2 WAT
Experimental: Seven days after planting (DAP) and again 11 DAP, T1 plants (cotyledon and 2-4-1f stage, respectively) were sprayed with a 0.016% solution of 2,4-D herbicide (456 g ae/L 2,4-D Amine 4, Dow AgroSciences LLC, Indianapolis, Ind.) at a spray volume of 10 ml/tray (703 L/ha) using a DeVilbiss compressed air spray tip to deliver an effective rate of 50 g ae/ha 2,4-D DMA per application. Survivors (plants actively growing) were identified 4-7 days after the final spraying and transplanted individually into 3-inch pots prepared with potting media (Metro Mix 360). Transplanted plants were covered with humidity domes for 3-4 days and placed in a 22° C. growth chamber as before or moved to directly to the greenhouse. Domes were subsequently removed and plants reared in the greenhouse (22±5° C., 50±30% RH, 14 h light:10 dark, minimum 500 μE/m^2s^1 natural+supplemental light) at least 1 day prior to testing for the ability of DSM-2 (v2) to provide glufosinate herbicide resistance.
T1 plants were then randomly assigned to various rates of glufosinate. For Arabidopsis 140 g ai/ha glufosinate is an effective dose to distinguish sensitive plants from ones with meaningful levels of resistance. Elevated rates were also applied to determine relative levels of resistance (280, 560, or 1120 g ai/ha).
All glufosinate herbicide applications were applied by track sprayer in a 187 L/ha spray volume. The commercial Liberty™ formulation (200 g ai/L, Bayer Crop Science, Research Triangle Park, N.C.).
The first Arabidopsis transformations were conducted using DSM-2 (v2) (plant optimized gene). T1 transformants were first selected from the background of untransformed seed using a 2,4-D DMA selection scheme. Over 100,000 T1 seed were screened and 260 2,4-D resistant plants (AAD-12 gene) were identified, equating to a transformation/selection frequency of 0.26% which is slightly higher than the normal range of selection frequency of constructs where AAD-12+2,4-D are used for selection. T1 plants selected above were subsequently transplanted to individual pots and sprayed with various rates of commercial glufosinate herbicide. Table 10 compares the response of DSM-2 (v2) and control genes to impart glufosinate resistance to Arabidopsis T1 transformants. Response is presented in terms of % visual injury 2 WAT. […] Since each T1 is an independent transformation event, one can expect significant variation of individual T1 responses within a given rate. An arithmetic mean and standard deviation is presented for each treatment. Untransformed-wildtype Arabidopsis served as a glufosinate sensitive control. The DSM-2 (v2) gene imparted herbicide resistance to individual T1 Arabidopsis plants. Within a given treatment, the level of plant response varied greatly and can be attributed to the fact each plant represents an independent transformation event. Of important note, at above 140 g ai/ha glufosinate, there were individuals that were unaffected while some were severely affected.

PAT (pDAS1942) corn = experiment: T2 corn response to glufosinate applied postemergence; assay type: in vivo; conditions: 14DAT
Description: (§1) The seed from the cross of T1 DSM-2 (v2)×5× H751 were planted into 4-inch pots containing Metro Mix media and at 2 leaf stage were sprayed in the track sprayer set to 187 L/ha at 560 g ai/ha glufosinate to remove nulls. At 7 DAT nulls were removed and resistant plants were sprayed in the track sprayer as above at the following rates: 0, 560, 1120, 2240, and 4480 g ai/ha glufosinate. Plants were graded at 3 and 14 DAT and compared to 5× H751× Hi II control plants.

[1] = test system: DSM-2 v2 (pDAS1941) T2 corn; experiment: as above; assay type: in vivo; conditions: for % Injury Ave / individuals with % Injury 20-40% / individuals with % Injury <20% / individuals with % Injury >40%: 14DAT
Description: as §1

[2] = test system: T0 PAT-transformed corn plants; experiment: Leaf paint with glufosinate in T0 corn; assay type: in vivo; conditions: 2 WAT
Experimental: T0 DSM-2 (v2) plants were painted with a rundown of glufosinate herbicide. Four siblings from each of 15 T0 events were tested, and 4 leaves on each individual plant received a rundown of glufosinate at approximately V8 stage. Rundown treatments were randomized for each rate allowing for variation of treatment location on individual leaves. For corn, 0.25% v/v glufosinate is the minimum effective dose to distinguish sensitive plants from ones with meaningful levels of resistance. Elevated rates were also applied to determine relative levels of resistance (0.5%, 1.0%, and 2.0% v/v). Glufosinate treatments were applied using cotton tipped applicators to a treatment area of approximately 2.5 cm in diameter.
Table 11 compares the response of DSM-2 (v2) and control genes to impart glufosinate resistance to corn T0 transformants. Response is presented in terms of % visual injury 2 WAT. […] Since each T0 is an independent transformation event, one can expect significant variation of individual T0 responses within a given rate. An arithmetic mean and standard deviation is presented for each treatment. Untransformed wildtype corn served as a glufosinate sensitive control. The DSM-2 (v2) gene imparted herbicide resistance to individual T0 corn plants. Within a given treatment, the level of plant response varied greatly and can be attributed to the fact each plant represents an independent transformation event.

[3] = 140 g ai/ha glufosinate postemergence
[4] = 280 g ai/ha glufosinate postemergence
[5] = 560 g ai/ha glufosinate postemergence
[6] = 1120 g ai/ha glufosinate postemergence
[7] = 4480 g ai/ha glufosinate postemergence
[8] = 2240 g ai/ha glufosinate postemergence

In the case of `CP(=O)(O)CCC(N)C(=O)O` (stereo not shown) [glufosinate], the “% Injury Ave” value (Wildtype Arabidopsis; [3]) is reported as 98.0%, the “individuals with % Injury 20-40%” value (Wildtype Arabidopsis; [3]) is reported as 0 and the “individuals with % Injury <20%” value (Wildtype Arabidopsis; [3]) is reported as 0. The “individuals with % Injury >40%” value (Wildtype Arabidopsis; [3]) was 10, the “% Injury Ave” value (Wildtype Arabidopsis; [4]) was 100.0% and the “individuals with % Injury 20-40%” value (Wildtype Arabidopsis; [4]) was 0. For the same compound, the “individuals with % Injury <20%” value (Wildtype Arabidopsis; [4]) was 0, the “individuals with % Injury >40%” value (Wildtype Arabidopsis; [4]) was 10 and the “% Injury Ave” value (Wildtype Arabidopsis; [5]) was 100.0%. The “individuals with % Injury 20-40%” value (Wildtype Arabidopsis; [5]) was 0, the “individuals with % Injury <20%” value (Wildtype Arabidopsis; [5]) was 0 and the “individuals with % Injury >40%” value (Wildtype Arabidopsis; [5]) was 10. The “% Injury Ave” value (Wildtype Arabidopsis; [6]) was 100.0%, the “individuals with % Injury 20-40%” value (Wildtype Arabidopsis; [6]) was 0 and the “individuals with % Injury <20%” value (Wildtype Arabidopsis; [6]) was 0. The “individuals with % Injury >40%” value (Wildtype Arabidopsis; [6]) was 10, the “effective dose to distinguish sensitive plants from ones with meaningful levels of resistance” value (Wildtype Arabidopsis; Arabidopsis) was 140 g ai/ha and the “individuals with % Injury 20-40%” value (PAT (pDAS1942) corn; [5]) was 0. The “individuals with % Injury >40%” value (PAT (pDAS1942) corn; [5]) was 0, the “% Injury Ave” value (PAT (pDAS1942) corn; [6]) was 25% and the “individuals with % Injury 20-40%” value (PAT (pDAS1942) corn; [6]) was 1. For the same compound, the “individuals with % Injury <20%” value (PAT (pDAS1942) corn; [6]) was 0, the “% Injury Ave” value (PAT (pDAS1942) corn; [7]) was 33% and the “individuals with % Injury 20-40%” value (PAT (pDAS1942) corn; [7]) was 3. For the same compound, the “individuals with % Injury >40%” value (PAT (pDAS1942) corn; [7]) was 1, the “% Injury Ave” value [1, 5] was 6% and the “individuals with % Injury 20-40%” value [1, 5] was 0. For the same compound, the “individuals with % Injury <20%” value [1, 5] was 4, the “individuals with % Injury >40%” value [1, 5] was 0 and the “% Injury Ave” value [1, 6] was 18%. For the same compound, the “individuals with % Injury 20-40%” value [1, 6] was 2, the “individuals with % Injury <20%” value [1, 6] was 2 and the “individuals with % Injury >40%” value [1, 6] was 0. The “% Injury Ave” value [1, 8] was 21%, the “individuals with % Injury 20-40%” value [1, 8] was 3 and the “individuals with % Injury <20%” value [1, 8] was 1. For the same compound, the “individuals with % Injury >40%” value [1, 8] was 0, the “% Injury Ave” value [1, 7] was 29% and the “individuals with % Injury 20-40%” value [1, 7] was 4. The “individuals with % Injury <20%” value [1, 7] was 0, the “individuals with % Injury >40%” value [1, 7] was 0 and the “injury of individual plants” value ([1]; up to 2240 g ai/ha glufosinate) was “less than 20%”. For the same compound, the “% Injury” value ([2]; 0.25% v/v glufosinate leaf paint) was 1%, the “% Injury” value ([2]; 0.5% v/v glufosinate leaf paint) was 3% and the “% Injury” value ([2]; 1% v/v glufosinate leaf paint) was 6%. For the same compound, the “% Injury” value ([2]; 2% v/v glufosinate leaf paint) was 9%.
